Measured values reported in patent publication US12171876B2, “Cationic lipid compound, composition containing same and use thereof” (HANGZHOU TIANLONG PHARMACEUTICAL CO., LTD., priority 2022, dated 2024).
Several values for one entry are separate records, joined by “and”; a condition that tells them apart may be missing. Equal entries are not always repeated. Entries after “also recorded” stand apart in the source; their conditions may differ. One block for each molecule: values may come before it.

Legend:
[1] = tested on: 293T cells; test: Cell survival rate assay (CCK-8); assay type: cell-based; settings: for Cell survival rate (%) / reduction in the cell survival rate compared with YK-009: 24 hours; for reduction in the cell survival rate compared with YK-009: LNP formulation of Fluc-mRNA
Protocol: (§1) Cell recovery and passage: 293T cells were recovered, cultured in a culture dish, and passaged to the required number of cells.
(§2) Seeding plate: The cells in the culture dish were digested and counted. Cells were spread in a 96-well plate at 10,000 cells per well and in a 12-well plate at 150,000 cells per well. Cells were cultured overnight until the cells adhered to the wall.
A LNP formulation containing 1.5 μg of Fluc-mRNA (the carrier component of the LNP formulation was cationic lipid, neutral lipid, structured lipid and polymer-conjugated lipid with a molar ratio of 50:10:38.5:1.5, wherein the cationic lipid was listed in Table 1) was added to the cell culture medium of a 96-well plate, and further cultivated for 24 hours. 10 μL of CCK-8 solution was then added to each well, and the culture plate was incubated in an incubator for 1 hour. The absorbance at 450 nm was measured by a microplate reader.
To compare the cytotoxicity of LNP formulations prepared from cationic lipid YK-009 and compound 25, we prepared LNP formulations with Fluc-mRNA contents of 1.5 μg, 1.125 μg, 0.75 μg and 0.375 μg (the carrier components of LNP formulations were cationic lipid, neutral lipid, structured lipid and polymer-conjugated lipid with a molar ratio of 50:10:38.5:1.5, wherein the cationic lipid was YK-009 or compound 25). The assay method of cell survival rate was the same as above.

[2] = Particle size and polydispersity index (PDI) of lipid nanoparticles by dynamic light scattering; assay type: physicochemical; settings: LNP formulation of Example 4, cationic lipid/DSPC/cholesterol/DMG-PEG2000 50:10:38.5:1.5; 25° C., 90° scattering angle
Protocol: The particle size and polydispersity index (PDI) were determined by dynamic light scattering using Malvern laser particle size analyzer.
10 μL of the liposome solution was weighed, diluted to 1 mL with RNase-free deionized water, and added to the sample pool. Each sample was measured in triplicate. The measurement conditions were: 90° scattering angle, and 25° C.

[3] = tested on: female BALB/C mice; test: Mouse live imaging test of LNP formulations of Fluc-mRNA; assay type: in vivo; settings: for expression intensity of Fluc-mRNA in mice over time (in words): 3 h to 72 h after intramuscular injection
Protocol: A LNP formulation containing 10 μg of Fluc-mRNA was intramuscularly injected into female BALB/C mice aged 4-6 weeks and weighing 17-19 g, and at specific time points (3 h, 6 h, 24 h, 48 h and 72 h) after administration, mice were injected intraperitoneally with a fluorescent imaging substrate. The mice moved freely for 5 minutes, and then the average radiation intensity (corresponding to fluorescence expression intensity) of the protein expressed by the mRNA carried by LNP in mice was detected using the IVIS Spectrum small animal live imager.
To compare the protein expression and duration in mice of LNP formulations prepared from cationic lipid YK-009 and compound 25, we prepared LNP formulations with Fluc-mRNA contents of 10 μg, 7.5 μg, 5 μg and 2.5 μg (the carrier components of LNP formulations were cationic lipid, neutral lipid, structured lipid and polymer-conjugated lipid with a molar ratio of 50:10:38.5:1.5, wherein the cationic lipid was YK-009 or compound 25). The mouse live imaging test method was the same as above.

[4] = tested on: 293T cells; test: Fluorescent detection of Fluc-mRNA (transfection efficiency of LNP formulations in cells); assay type: cell-based
Protocol: as §1, §2
A LNP formulation containing 0.3 μg of Fluc-mRNA (the carrier components of the LNP formulation were cationic lipid, neutral lipid, structured lipid and polymer-conjugated lipid with a molar ratio of 50:10:38.5:1.5, wherein the cationic lipid was listed in Table 1) was added to the cell culture medium of a 96-well plate, and further incubated for 24 hours. The corresponding reagent was added according to the instructions of the […] Luciferase Assay Kit, and the fluorescence expression intensity of each well was detected by an IVIS fluorescence detection system. This test verified the transfection efficiency of LNP formulations in cells.
In order to further compare the intracellular transfection efficiency of LNP formulations prepared from cationic lipid YK-009 and compound 25, we prepared LNP formulations with Fluc-mRNA contents of 0.3 μg, 0.225 μg, 0.15 μg and 0.075 μg, respectively (the carrier components of the LNP formulation were cationic lipid, neutral lipid, structured lipid and polymer-conjugated lipid with a molar ratio of 50:10:38.5:1.5, wherein the cationic lipid was YK-009 or compound 25). The intracellular transfection activity of the prepared LNP formulations was detected, and the detection method was the same as above.

[5] = LNP formulation containing 1.5 μg of Fluc-mRNA
[6] = mRNA transfection, time not stated

PDI (%) [2]: 24.4% | Particle size (nm) [2]: 114.12 nm
Structure (SMILES): CCCCCCCCCOC(=O)CCCCCCCN(CCO)CCCCCCCCCC(=O)OC(CCCCCCCC)CCCCCCCC [Compound 23, nonyl 8-((2-hydroxyethyl)(10-((9-heptadecyl)oxy)-10-oxodecyl)amino)octanoate, reference compound]
Cell survival rate (%) [1, 5]: 87% | reduction in the cell survival rate compared with YK-009 [1]: 13% | expression intensity of Fluc-mRNA in mice over time (in words) [3]: decreased rapidly between 6 h and 48 h

Structure (SMILES): CCCCCCCCCCCOC(=O)CCCCCN(CCO)CCCCCCCC(=O)OC(CCCCCCCC)CCCCCCCC [Compound 25, reference compound]
Cell survival rate (%) ([1]; Fluc-mRNA content 0.375 μg): 99% | Cell survival rate (%) ([1]; Fluc-mRNA content 0.75 μg): 97% | Cell survival rate (%) ([1]; Fluc-mRNA content 1.125 μg): 95% | Cell survival rate (%) ([1]; Fluc-mRNA content 1.5 μg): 91% | PDI (%) [2]: 23.1% | Particle size (nm) [2]: 117.10 nm | expression intensity of Fluc-mRNA in mice over time (in words) [3]: decreased rapidly at 6˜48 h

PDI (%) [2]: 13.6% | Particle size (nm) [2]: 178.85 nm
Structure (SMILES): CCCCCCCCCOC(=O)CCCCCCCN(CCO)CCCCCC(=O)OC(CCCCCCCC)CCCCCCCC [Compound 27, nonyl 8-((2-hydroxyethyl)(6-((9-heptadecyl)oxy)-6-oxohexyl)amino)octanoate, reference compound]
Cell survival rate (%) [1, 5]: 84% | reduction in the cell survival rate compared with YK-009 [1]: 16% | expression intensity of Fluc-mRNA in mice over time (in words) [3]: decreased rapidly between 6 h and 48 h

PDI (%) [2]: 18.3% | Particle size (nm) [2]: 205.20 nm
Structure (SMILES): CCCCC/C=C\C/C=C\CCCCCCCCC(CCCCCCCC/C=C\C/C=C\CCCCC)OC(=O)CCCN(C)C [MC3, reference compound]
Cell survival rate (%) [1, 5]: 88% | expression intensity of Fluc-mRNA in mice over time (in words) [3]: very low at each time

PDI (%) [2]: 10.2% | Particle size (nm) [2]: 164.03 nm
Structure (SMILES): CCCCCCCCCCCOC(=O)CCCN(CCO)CCCCCC(=O)OCC(CCCCCCCC)CCCCCCCC [YK-001, 2-octyldecyl 6-((4-(undecyloxy)-4-oxobutyl) (2-hydroxyethyl)amino)hexanoate]
Cell survival rate (%) [1, 5]: 85%

PDI (%) [2]: 27.7% | Particle size (nm) [2]: 156.70 nm
Structure (SMILES): CCCCCCCCCCOC(=O)CCCCN(CCO)CCCCCC(=O)OCC(CCCCCCCC)CCCCCCCC [YK-002, 2-octyldecyl 6-((5-(decyloxy)-5-oxopentyl)(2-hydroxyethyl)amino)hexanoate]
Cell survival rate (%) [1, 5]: 89% | reduction in the cell survival rate compared with YK-009 [1]: 11%

PDI (%) [2]: 21.3% | Particle size (nm) [2]: 119.91 nm
Structure (SMILES): CCCCCCCCCCOC(=O)CCCCCN(CCO)CCCCCC(=O)OCC(CCCCCCCC)CCCCCCCC [YK-003, 2-octyldecyl 6-((6-(decyloxy)-6-oxohexyl)(2-hydroxyethyl)amino)hexanoate]
Cell survival rate (%) [1, 5]: 84% | expression intensity of Fluc-mRNA in mice over time (in words) [3]: highest expression intensity | expression in mice, times higher than that for MC3 [3, 6]: more than 18 times | expression in mice, times higher than that for compound 23 [3, 6]: > 8 times

PDI (%) [2]: 9.7% | Particle size (nm) [2]: 190.65 nm
Structure (SMILES): CCCCCCCCCCOC(=O)CCCN(CCO)CCCC(=O)OCC(CCCCCCCC)CCCCCCCC [YK-004, 2-octyldecyl 4-((4-(decyloxy)-4-oxobutyl)(2-hydroxyethyl)amino)butyrate]
Cell survival rate (%) [1, 5]: 87%

PDI (%) [2]: 17.3% | Particle size (nm) [2]: 148.75 nm
Structure (SMILES): CCCCCCCCCCOC(=O)CCCN(CCO)CCCCCCCC(=O)OC(CCCCCCCC)CCCCCCCC [YK-005, 9-heptadecyl 8-((4-(decyloxy)-4-oxobutyl)(2-hydroxyethyl)amino)octanoate]
Cell survival rate (%) [1, 5]: 88%

PDI (%) [2]: 22.9% | Particle size (nm) [2]: 125.35 nm
Structure (SMILES): CCCCCCCCCCOC(=O)CCCN(CCO)CCCCC(=O)OCC(CCCCCCCC)CCCCCCCC [YK-006, 2-octyldecyl 5-((4-(decyloxy)-4-oxobutyl)(2-hydroxyethyl)amino)pentanoate]
Cell survival rate (%) [1, 5]: 96%

PDI (%) [2]: 13.6% | Particle size (nm) [2]: 178.06 nm
Structure (SMILES): CCCCCCCCCCCOC(=O)CCCCCN(CCO)CCCCCC(=O)OCC(CCCCCCCC)CCCCCCCC [YK-007, 2-octyldecyl 6-((2-hydroxyethyl)(6-oxo-6-(undecyloxy)hexyl)amino)hexanoate]
Cell survival rate (%) [1, 5]: 96%

PDI (%) [2]: 24.4% | Particle size (nm) [2]: 205.00 nm
Structure (SMILES): CCCCCCCCCOC(=O)CCCN(CCO)CCCCCC(=O)OCC(CCCCCCCC)CCCCCCCC [YK-008, 2-octyldecyl 6-((4-(nonyloxy)-4-oxobutyl)(2-hydroxyethyl)amino)hexanoate]
Cell survival rate (%) [1, 5]: 91%

PDI (%) [2]: 18.2% | Particle size (nm) [2]: 136.44 nm
Structure (SMILES): CCCCCCCCCCOC(=O)CCCN(CCO)CCCCCC(=O)OCC(CCCCCCCC)CCCCCCCC [YK-009, 2-octyldecyl 6-((4-(decyloxy)-4-oxobutyl)(2-hydroxyethyl)amino)hexanoate]
difference in toxicity to transfected cells between YK-009 and YK-010 [1]: ≥ 25% | Cell survival rate (%) ([1]; Fluc-mRNA content 0.375 μg): 100% | Cell survival rate (%) ([1]; Fluc-mRNA content 0.75 μg): 100% | Cell survival rate (%) ([1]; Fluc-mRNA content 1.125 μg): 100% | Cell survival rate (%) ([1]; Fluc-mRNA content 1.5 μg): 100% | Cell survival rate (%) [1, 5]: 100% | reduction in toxicity to transfected cells compared with compound 25 ([1]; mRNA transfection): 9% | toxicity to transfected cells, lower than that of MC3 ([1]; mRNA transfection): 12% | toxicity to transfected cells, lower than that of compound 23 ([1]; mRNA transfection): 13% | toxicity to transfected cells, lower than that of compound 27 ([1]; mRNA transfection): 16% | expression intensity of Fluc-mRNA in mice over time (in words) [3]: highest expression intensity; also recorded: maintain high expression in vivo for a long time | expression in mice, times higher than that for MC3 [3, 6]: more than 25 times | expression in mice, times higher than that for compound 27 [3, 6]: > 6 times | increase in expression in mice compared with compound 25 [3, 6]: 7 fold | RLU value / cell transfection efficiency, times that of MC3 ([4]; Fluc-mRNA LNP formulation): 42 times and 40 times | RLU value / cell transfection efficiency, times that of YK-004 ([4]; Fluc-mRNA LNP formulation): 39 times | RLU value / cell transfection efficiency, times that of YK-010 ([4]; Fluc-mRNA LNP formulation): 58 times and ~60 times | RLU value / cell transfection efficiency, times that of compound 27 ([4]; Fluc-mRNA LNP formulation): 13 times | fluorescence absorption, times that of the compound 25 formulation ([4]; LNP formulation containing 0.075 μg of Fluc-mRNA): 3.7 times | fluorescence absorption, times that of the compound 25 formulation ([4]; LNP formulation containing 0.15 μg of Fluc-mRNA): 4.0 times | fluorescence absorption, times that of the compound 25 formulation ([4]; LNP formulation containing 0.225 μg of Fluc-mRNA): 7.0 times | fluorescence absorption, times that of the compound 25 formulation ([4]; LNP formulation containing 0.3 μg of Fluc-mRNA): 4.4 times | cell transfection efficiency, fold compared with compound 25 ([4]; mRNA transfection, content not stated): 7 times

PDI (%) [2]: 19.8% | Particle size (nm) [2]: 124.46 nm
Structure (SMILES): CCCCCCCCCCOC(=O)CCCN(CCO)CCCCCC(=O)OCC(CCCCCCC)CCCCCCC [YK-010, 2-heptylnonyl 6-((4-(decyloxy)-4-oxobutyl)(2-hydroxyethyl)amino)hexanoate]
Cell survival rate (%) [1, 5]: 77% | reduction in the cell survival rate compared with YK-009 [1]: 23%

PDI (%) [2]: 21.2% | Particle size (nm) [2]: 173.16 nm
Structure (SMILES): CCCCCCCCCCOC(=O)CCCN(CCO)CCCCCC(=O)OCC(CCCCCC)CCCCCC [YK-011, 2-hexyloctyl 6-((4-(decyloxy)-4-oxobutyl)(2-hydroxyethyl)amino)hexanoate]
Cell survival rate (%) [1, 5]: 98%
